Experimental data: PubChem BioAssay (NCI)
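How tested: cells in 96-well plates exposed to compound for 48 hours at five concentrations. TGI: total growth inhibition.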

Experiments:
Test in all cases: growth of human tumour cells (NCI), 48 h
NCI/ADR-RES ovarian = tested on: NCI/ADR-RES ovarian
SF-295 CNS = tested on: SF-295 CNS
UO-31 renal = tested on: UO-31 renal
COLO 205 colon = tested on: COLO 205 colon
SK-OV-3 ovarian = tested on: SK-OV-3 ovarian
SK-MEL-28 melanoma = tested on: SK-MEL-28 melanoma
MCF7 breast = tested on: MCF7 breast
SNB-19 CNS = tested on: SNB-19 CNS
UACC-257 melanoma = tested on: UACC-257 melanoma
SK-MEL-5 melanoma = tested on: SK-MEL-5 melanoma
HCT-116 colon = tested on: HCT-116 colon
OVCAR-4 ovarian = tested on: OVCAR-4 ovarian
SNB-75 CNS = tested on: SNB-75 CNS
SF-539 CNS = tested on: SF-539 CNS
NCI-H460 lung = tested on: NCI-H460 lung
MALME-3M melanoma = tested on: MALME-3M melanoma
M14 melanoma = tested on: M14 melanoma
SW-620 colon = tested on: SW-620 colon
OVCAR-8 ovarian = tested on: OVCAR-8 ovarian
CAKI-1 renal = tested on: CAKI-1 renal

| SMILES | TGI (NCI/ADR-RES ovarian) | TGI (SF-295 CNS) | TGI (UO-31 renal) | TGI (COLO 205 colon) | TGI (SK-OV-3 ovarian) | TGI (SK-MEL-28 melanoma) | TGI (MCF7 breast) | TGI (SNB-19 CNS) | TGI (UACC-257 melanoma) | TGI (SK-MEL-5 melanoma) | TGI (HCT-116 colon) | TGI (OVCAR-4 ovarian) | TGI (SNB-75 CNS) | TGI (SF-539 CNS) | TGI (NCI-H460 lung) | TGI (MALME-3M melanoma) | TGI (M14 melanoma) | TGI (SW-620 colon) | TGI (OVCAR-8 ovarian) | TGI (CAKI-1 renal) |
| --- | --- | --- | --- | --- | --- | --- | --- | --- | --- | --- | --- | --- | --- | --- | --- | --- | --- | --- | --- | --- |
| O=C(CC(C(=O)c1cccs1)c1ccsc1)c1ccsc1 (centres undefined) | 63.6 µM | 93.3 µM | > 100 µM | 53.5 µM | > 100 µM | > 100 µM | > 100 µM | > 100 µM | > 100 µM | 64 µM | > 100 µM | > 100 µM | > 100 µM | 94.8 µM | > 100 µM | > 100 µM | 50.8 µM | > 100 µM | > 100 µM | – |
| Cc1c2cnccc2nc2[nH]c3ccncc3c12 | – | 52.5 µM | 28.8 µM | > 100 µM | > 100 µM | > 100 µM | – | > 100 µM | 94.9 µM | 20.6 µM | – | > 100 µM | > 100 µM | > 100 µM | 6.06 µM | 14.1 µM | 20.6 µM | 65.8 µM | > 100 µM | 24.9 µM |
| COC(=O)[C@@]12OC[C@]34C([C@@H](O)C1O)[C@@]1(C)CC(=O)C(O)=C(C)C1C[C@H]3OC(=O)[C@H](OC(=O)CC(C)C(F)(F)F)[C@H]42 (some centres undefined) | – | 0.191 µM | 1.06 µM | 0.415 µM | 0.531 µM | 0.111 µM | – | 0.108 µM | 0.547 µM | 0.0731 µM | 0.18 µM | 0.561 µM | 0.187 µM | 0.067 µM | 0.0554 µM | 0.0438 µM | 0.124 µM | 1.37 µM | 0.491 µM | 1.07 µM |
| CC(CCCOC(c1ccccc1)(c1ccccc1)c1ccccc1)OC(=O)Nc1cc([N+](=O)[O-])cc([N+](=O)[O-])c1 (centres undefined) | – | > 100 µM | > 100 µM | – | 57.9 µM | 54.4 µM | – | > 100 µM | 85.1 µM | 44.6 µM | > 100 µM | > 100 µM | 72.5 µM | > 100 µM | 73.2 µM | 83.2 µM | > 100 µM | > 100 µM | > 100 µM | 72.1 µM |
| CC(C)CNC(=O)Cn1c2c(c3ccccc31)CCCC2 | > 100 µM | > 100 µM | > 100 µM | > 100 µM | > 100 µM | > 100 µM | > 100 µM | > 100 µM | > 100 µM | > 100 µM | > 100 µM | > 100 µM | – | > 100 µM | > 100 µM | > 100 µM | > 100 µM | > 100 µM | > 100 µM | > 100 µM |
| CCCCCCCCCCCC1N=C(N)NC(CCCO)=C1C(=O)OC (centres undefined) | 49.5 µM | 8.59 µM | 38.1 µM | – | 8.12 µM | 12.1 µM | – | – | 11.7 µM | 6.33 µM | 3.01 µM | 9.15 µM | 7.44 µM | 33.2 µM | – | > 62.2 µM | – | – | 6.25 µM | 27.3 µM |
| Cn1c(=O)nc2n(-c3ccc(Cl)cc3Cl)c3ccccc3nc-2c1=O | – | 10.6 µM | 26 µM | 8.73 µM | 72.8 µM | 23.5 µM | – | 26.5 µM | – | 3.36 µM | 5.19 µM | 15.4 µM | – | 19.3 µM | – | 3.26 µM | 4.58 µM | – | 14.1 µM | 13.2 µM |
| CC1=NN(C(=O)c2ccc(Cl)cc2)C(=O)/C1=C/c1cccc([N+](=O)[O-])c1 | – | > 100 µM | > 100 µM | > 100 µM | > 100 µM | > 100 µM | – | > 100 µM | > 100 µM | > 100 µM | > 100 µM | > 100 µM | – | > 100 µM | > 100 µM | > 100 µM | > 100 µM | > 100 µM | > 100 µM | > 100 µM |
| CC(=O)Nc1ccc(N2C(=O)/C(=C\c3cccc(Oc4ccccc4)c3)SC2c2ccccc2)cc1 (centres undefined) | > 100 µM | > 100 µM | > 100 µM | > 100 µM | > 100 µM | 76.1 µM | 65.8 µM | 48.5 µM | > 100 µM | 68.6 µM | 39.6 µM | > 100 µM | – | 33.4 µM | > 100 µM | 62.4 µM | > 100 µM | > 100 µM | 34.8 µM | > 100 µM |
| Cc1ccc(-n2cnc3c(N/N=C4\SCC(=O)N4c4ccccc4)ncnc32)cc1 | 53.8 µM | 27.6 µM | 17.9 µM | 17.1 µM | 27.7 µM | 11.4 µM | – | 24.4 µM | 18.3 µM | 16 µM | 13 µM | 21.2 µM | – | 3.71 µM | 13.2 µM | 16.3 µM | 13.4 µM | 16.5 µM | 11.8 µM | 18.9 µM |
| CCOC(=O)COc1ccc(/C=C/C(=O)c2ccc(OC)cc2)cc1 | > 100 µM | > 100 µM | 45.4 µM | > 100 µM | – | 58.4 µM | > 100 µM | > 100 µM | 57.3 µM | – | 57.7 µM | – | > 100 µM | 41.5 µM | – | 92.7 µM | > 100 µM | 61.6 µM | > 100 µM | – |
| C1=NCCOCCN=Cc2ccccc2OCc2cccc(n2)COc2ccccc21 | 13.4 µM | 12 µM | > 25 µM | > 25 µM | > 25 µM | > 25 µM | 19.4 µM | > 25 µM | 21.5 µM | – | > 25 µM | > 25 µM | 12.9 µM | 9.13 µM | > 25 µM | 22.5 µM | > 25 µM | > 25 µM | 16.9 µM | – |
| CC(C)=CCC/C(C)=C/Cc1c(O)ccc2c1[nH]c1cc(O)c(C)cc12 | – | – | > 25 µM | > 25 µM | > 25 µM | > 25 µM | – | > 25 µM | – | > 25 µM | > 25 µM | 12.1 µM | – | 23.8 µM | > 25 µM | > 25 µM | > 25 µM | > 25 µM | > 25 µM | – |
